Test results as given in the supplement of paper PMC11451515.

Tested on: P12-Ichikawa
Test: cell viability relative to DMSO control; higher = less cytotoxic
Conditions: 48 h
How it was run: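 Viability is expressed as a percentage of DMSO wells within each plate, and cell-free wells serve as background. Seeding densities in the 1536-well plates (5 μl) were 500 cells/well for NOMO1 or SEM leukemia cells and 1000 cells/well for P12-Ichikawa. Each line was adapted for at least four passages in each medium. Library compounds in DMSO were pin-dosed at 47 μM to 0.79 nM (11 points, threefold), and CellTiter-Glo One luminescence was read after 48 h at 37°C.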

[1] = HPLM + 10% dialyzed FBS, 0.000781 µM
[2] = HPLM + 10% dialyzed FBS, 0.00234 µM
[3] = HPLM + 10% dialyzed FBS, 0.00702 µM
[4] = HPLM + 10% dialyzed FBS, 0.0211 µM
[5] = HPLM + 10% dialyzed FBS, 0.0632 µM
[6] = HPLM + 10% dialyzed FBS, 0.19 µM
[7] = HPLM + 10% dialyzed FBS, 0.569 µM
[8] = HPLM + 10% dialyzed FBS, 1.71 µM
[9] = HPLM + 10% dialyzed FBS, 5.12 µM
[10] = HPLM + 10% dialyzed FBS, 15.4 µM
[11] = HPLM + 10% dialyzed FBS, 46.1 µM
[12] = RPMI 5 mM glucose + 10% FBS, 0.000781 µM
[13] = RPMI 5 mM glucose + 10% FBS, 0.00234 µM
[14] = RPMI 5 mM glucose + 10% FBS, 0.00702 µM
[15] = RPMI 5 mM glucose + 10% FBS, 0.0211 µM
[16] = RPMI 5 mM glucose + 10% FBS, 0.0632 µM
[17] = RPMI 5 mM glucose + 10% FBS, 0.19 µM
[18] = RPMI 5 mM glucose + 10% FBS, 0.569 µM
[19] = RPMI 5 mM glucose + 10% FBS, 1.71 µM
[20] = RPMI 5 mM glucose + 10% FBS, 5.12 µM
[21] = RPMI 5 mM glucose + 10% FBS, 15.4 µM
[22] = RPMI 5 mM glucose + 10% FBS, 46.1 µM
[23] = RPMI 5 mM glucose + 10% dialyzed FBS, 0.000781 µM
[24] = RPMI 5 mM glucose + 10% dialyzed FBS, 0.00234 µM
[25] = RPMI 5 mM glucose + 10% dialyzed FBS, 0.00702 µM
[26] = RPMI 5 mM glucose + 10% dialyzed FBS, 0.0211 µM
[27] = RPMI 5 mM glucose + 10% dialyzed FBS, 0.0632 µM
[28] = RPMI 5 mM glucose + 10% dialyzed FBS, 0.19 µM
[29] = RPMI 5 mM glucose + 10% dialyzed FBS, 0.569 µM
[30] = RPMI 5 mM glucose + 10% dialyzed FBS, 1.71 µM
[31] = RPMI 5 mM glucose + 10% dialyzed FBS, 5.12 µM
[32] = RPMI 5 mM glucose + 10% dialyzed FBS, 15.4 µM
[33] = RPMI 5 mM glucose + 10% dialyzed FBS, 46.1 µM

`Cc1cc(Nc2nc(N[C@@H](C)c3ccc(F)cc3)c(C#N)cc2F)n[nH]1` gave a cell viability [1] of 105%, a cell viability [2] of 101% and a cell viability [3] of 96.7%. For the same compound, the cell viability [4] was 105%, the cell viability [5] was 102% and the cell viability [6] was 102%. The cell viability [7] was 101%, the cell viability [8] was 94.2% and the cell viability [9] was 22.1%. For the same compound, the cell viability [10] was 27.6%, the cell viability [11] was 56.8% and the cell viability [12] was 104%. It also gave a cell viability [13] of 103%, a cell viability [14] of 106% and a cell viability [15] of 105%. For the same compound, the cell viability [16] was 98.9%, the cell viability [17] was 100% and the cell viability [18] was 107%. For the same compound, the cell viability [19] was 93%, the cell viability [20] was 23% and the cell viability [21] was 44.7%. It also gave a cell viability [22] of 53.1%, a cell viability [23] of 96.7% and a cell viability [24] of 89.5%. The cell viability [25] was 104%, the cell viability [26] was 97.4% and the cell viability [27] was 95.6%. For the same compound, the cell viability [28] was 104%, the cell viability [29] was 87.5% and the cell viability [30] was 84.4%. For the same compound, the cell viability [31] was 34.2%, the cell viability [32] was 45.4% and the cell viability [33] was 54.8%.
Work on `CCCCC(C=O)NC(=O)C(CC(C)C)NC(=O)OCc1ccccc1` (stereo unspecified) yielded a cell viability [1] of 90.9%, a cell viability [2] of 94.3% and a cell viability [3] of 95.8%. For the same compound, the cell viability [4] was 90.7%, the cell viability [5] was 95.6% and the cell viability [6] was 91.8%. It also gave a cell viability [7] of 91.1%, a cell viability [8] of 85.7% and a cell viability [9] of 80.6%. The cell viability [10] was 81%, the cell viability [11] was 70.5% and the cell viability [12] was 88%. The cell viability [13] was 91.3%, the cell viability [14] was 90.3% and the cell viability [15] was 82.1%. For the same compound, the cell viability [16] was 91.6%, the cell viability [17] was 84.2% and the cell viability [18] was 80.6%. For the same compound, the cell viability [19] was 82.3%, the cell viability [20] was 78.3% and the cell viability [21] was 73.7%. It also gave a cell viability [22] of 51.7%, a cell viability [23] of 86.1% and a cell viability [24] of 85.4%. For the same compound, the cell viability [25] was 83%, the cell viability [26] was 86.9% and the cell viability [27] was 79.6%. It also gave a cell viability [28] of 84.8%, a cell viability [29] of 81.3% and a cell viability [30] of 76.7%. For the same compound, the cell viability [31] was 71.3%, the cell viability [32] was 70.6% and the cell viability [33] was 53.7%.
`CC[C@@]1(O)C(=O)OCC/2=C1/C=C3\N(CC4=CC5=CC(=CC=C5N=C34)O)C2=O` showed a cell viability [12] of 122%, a cell viability [13] of 120% and a cell viability [14] of 117%. It also gave a cell viability [15] of 91.5%, a cell viability [16] of 11.4% and a cell viability [17] of 9.55%. The cell viability [18] was 8.05%, the cell viability [19] was 7.2% and the cell viability [20] was 6.2%. For the same compound, the cell viability [21] was 5.86%, the cell viability [22] was 6.96% and the cell viability [23] was 115%. It also gave a cell viability [24] of 127%, a cell viability [25] of 106% and a cell viability [26] of 88.7%. For the same compound, the cell viability [27] was 16.9%, the cell viability [28] was 12.1% and the cell viability [29] was 10.2%. For the same compound, the cell viability [30] was 6.53%, the cell viability [31] was 6.88% and the cell viability [32] was 6.54%. It also gave a cell viability [33] of 8.98%.
`CN(C)c1nc(Cc2ccc(NC(=O)c3ccc4ccccc4c3)cc2)nc(Cl)c1CC(=O)O` showed a cell viability [1] of 112%, a cell viability [2] of 112% and a cell viability [3] of 101%. For the same compound, the cell viability [4] was 101%, the cell viability [5] was 108% and the cell viability [6] was 124%. For the same compound, the cell viability [7] was 104%, the cell viability [8] was 99.4% and the cell viability [9] was 84.8%. It also gave a cell viability [10] of 84.8%, a cell viability [11] of 69.3% and a cell viability [12] of 117%. It also gave a cell viability [13] of 107%, a cell viability [14] of 124% and a cell viability [15] of 115%. It also gave a cell viability [16] of 117%, a cell viability [17] of 114% and a cell viability [18] of 107%. For the same compound, the cell viability [19] was 98.7%, the cell viability [20] was 87.2% and the cell viability [21] was 69.8%. The cell viability [22] was 73.6%, the cell viability [23] was 106% and the cell viability [24] was 113%. For the same compound, the cell viability [25] was 113%, the cell viability [26] was 111% and the cell viability [27] was 106%. It also gave a cell viability [28] of 107%, a cell viability [29] of 105% and a cell viability [30] of 104%. The cell viability [31] was 84%, the cell viability [32] was 68.7% and the cell viability [33] was 61.5%.
Work on `CC1(N2CCC(n3c([C@@H]4CCCNC4)nc4ccccc43)CC2)CCCCCCC1` yielded a cell viability [1] of 101%, a cell viability [2] of 95.4% and a cell viability [3] of 106%. For the same compound, the cell viability [4] was 111%, the cell viability [5] was 113% and the cell viability [6] was 115%. The cell viability [7] was 113%, the cell viability [8] was 115% and the cell viability [9] was 108%. The cell viability [10] was 88%, the cell viability [11] was 55.6% and the cell viability [12] was 98.3%. For the same compound, the cell viability [13] was 95%, the cell viability [14] was 104% and the cell viability [15] was 115%. It also gave a cell viability [16] of 110%, a cell viability [17] of 111% and a cell viability [18] of 124%. For the same compound, the cell viability [19] was 118%, the cell viability [20] was 110% and the cell viability [21] was 86.9%. For the same compound, the cell viability [22] was 67.9%, the cell viability [23] was 97.1% and the cell viability [24] was 101%. For the same compound, the cell viability [25] was 104%, the cell viability [26] was 115% and the cell viability [27] was 112%. The cell viability [28] was 107%, the cell viability [29] was 110% and the cell viability [30] was 109%. The cell viability [31] was 109%, the cell viability [32] was 81.7% and the cell viability [33] was 65.9%.
`O=C(Nc1ncc(-c2cc(C(F)F)nn2-c2c(Cl)cccc2Cl)s1)C1CC1` was tested, and the cell viability [1] was 116%, the cell viability [2] was 122% and the cell viability [3] was 123%. For the same compound, the cell viability [4] was 131%, the cell viability [5] was 130% and the cell viability [6] was 129%. It also gave a cell viability [7] of 126%, a cell viability [8] of 14.2% and a cell viability [9] of 18.3%. It also gave a cell viability [10] of 11% and a cell viability [11] of 14.6%.
For `C[C@]12CC[C@@H]3c4ccc(O)cc4CC[C@H]3[C@@H]1C[C@@H](O)[C@@H]2O`, the cell viability [1] was 117%, the cell viability [2] was 115% and the cell viability [3] was 114%. The cell viability [4] was 120%, the cell viability [5] was 113% and the cell viability [6] was 111%. The cell viability [7] was 119%, the cell viability [8] was 110% and the cell viability [9] was 112%. For the same compound, the cell viability [10] was 104%, the cell viability [11] was 104% and the cell viability [12] was 120%. It also gave a cell viability [13] of 115%, a cell viability [14] of 116% and a cell viability [15] of 114%. The cell viability [16] was 125%, the cell viability [17] was 129% and the cell viability [18] was 126%. The cell viability [19] was 124%, the cell viability [20] was 123% and the cell viability [21] was 108%. For the same compound, the cell viability [22] was 107%, the cell viability [23] was 116% and the cell viability [24] was 120%. The cell viability [25] was 125%, the cell viability [26] was 123% and the cell viability [27] was 115%. The cell viability [28] was 117%, the cell viability [29] was 123% and the cell viability [30] was 118%. For the same compound, the cell viability [31] was 109%, the cell viability [32] was 114% and the cell viability [33] was 105%.
`OC(=O)C(CC/1=C/C(=O)NC2=CC=CC=C12)NC(=O)C3=CC=C(Cl)C=C3` (stereo unspecified) showed a cell viability [1] of 111%, a cell viability [2] of 118% and a cell viability [3] of 120%. It also gave a cell viability [4] of 123%, a cell viability [5] of 123% and a cell viability [6] of 125%. The cell viability [7] was 124%, the cell viability [8] was 128% and the cell viability [9] was 122%. For the same compound, the cell viability [10] was 126%, the cell viability [11] was 125% and the cell viability [12] was 109%. The cell viability [13] was 115%, the cell viability [14] was 119% and the cell viability [15] was 117%. It also gave a cell viability [16] of 131%, a cell viability [17] of 122% and a cell viability [18] of 128%. The cell viability [19] was 121%, the cell viability [20] was 128% and the cell viability [21] was 132%. For the same compound, the cell viability [22] was 141%, the cell viability [23] was 120% and the cell viability [24] was 122%. For the same compound, the cell viability [25] was 129%, the cell viability [26] was 130% and the cell viability [27] was 139%. For the same compound, the cell viability [28] was 135%, the cell viability [29] was 135% and the cell viability [30] was 128%. The cell viability [31] was 130%, the cell viability [32] was 124% and the cell viability [33] was 133%.
